In brackets after ≈: the same amount, converted by molar mass.
Experiments:
[1] = test system: mice; assay: Light Dark Box test (anxiolytic effect); assay type: in vivo; details: per os 1 hour before the test
Description: The light dark paradigm is based on a conflict between the innate aversion of rodents to brightly illuminated areas and on the spontaneous exploratory behaviour of the mice. If given a choice between a large brightly compartment versus a small dark compartment they spontaneously prefer the dark part.
The apparatus consists of two PVC (polyvinylchloride) boxes (19×19×15 cm) covered with Plexiglas. One of these boxes is darkened. The other box is illuminated by 100 W desk lamp placed 15 cm above and providing an illumination of about 4400 Lux. An opaque plastic tunnel (5×7×10 cm) separates the dark box from the illuminated one.
Animals were placed individually in the lit box, with head directed towards the tunnel. The time spent in the lit box and the number of transitions between the two boxes was recorded over a 5 min period after the first entry of the animal in the dark box. The total walked distance in the lit box was also recorded. Animals scored without entry into the […] were excluded from the analysis.
(§1) Test compound was prepared in aqueous vehicle containing 0.5% w/v hydroxypropylmethyl cellulose, 0.5% v/v benzyl alcohol and 0.4% v/v Tween 80. It was administrated per os 1 hour before the implementation of the test.

[2] = test system: mice; assay: Modified Open Field (Dark), sedative or stimulating effect; assay type: in vivo; details: tested at 5-100 mg/kg, per os 1 hour before the test
Description: The open field (dark) is used to measure the spontaneous motor activity of mice in a quiet, dark environment. This system is useful for discriminating the sedating or stimulating properties of test compounds on spontaneous locomotion and can thus provide a preliminary indication of potentially adverse effects such as sedation.
The apparatus is an open plexiglass cage (52×52 cm) with 40 cm walls. The animal's movements are tracked by a computerised video tracking system, consisting of an overhead camera, diode sensors placed underneath the floor of the cage, computer and video analyser software (ViewPoint, France). The video camera is placed at 2.50 m above the cage and connected to the computer via a video capture card (Pinnacle Systems, France). The video tracking system is set in a way that the floor of the OF is divided into nine equal squares. The total number of crossed squares and the total walked distance are recorded.
Each animal is singly placed in a corner of the apparatus and its locomotor activity is automatically recorded over a period of 20 minutes.
The apparatus is cleaned between each animal with alcohol (70%).
as §1

[3] = test system: rat; assay: Elevated Plus Maze; assay type: in vivo; details: per os 1 hour before the test
Description: The Elevated Plus Maze (EPM) situation rests on the conflict between the innate tendencies of rodents to explore novel environments and avoid open and brightly lit areas. In this task the mouse is placed in the centre of the maze. From here it can walk down any of four runways. Two of the arms are well lit and open, and the other two are enclosed and dimly lit. Mice prefer the closed arms but will venture out into the open arms. The amount of time spent in the open arms and the number of times the mice enter the open arms are recorded. The total walked distance in the open arms is also recorded. “Anxious” mice will spend little time in the open arms and make very few entries into the open arms.
The apparatus is made of polyvinylchloride materials and consists of four equal exploratory arms (45×10 cm) which are all interconnected by a small platform (10×10 cm). Two arms are open and two others are closed with walls (30 cm high). The apparatus is placed 66 cm above the floor. A videotracking system is used to record the test (ViewPoint, France). […]
A trial consists of placing an animal on the central platform facing a closed arm. The number of entries and the duration spent in open arms are automatically recorded by a videotrack system during an 5 minutes period. […]

[4] = test system: mice; assay: Marble Burying; assay type: in vivo; details: per os 1 hour before the test
Description: The Marble Burying test is used as a model for both anxiety and obsessive compulsive disorders. Mice have a natural tendency to bury marbles under the bedding when placed in a cage with rows of evenly spaced marbles on the floor. Suppression of this spontaneous burying has been used as a measure of anxiolytic drug action. Mice pre-treated with benzodiazepines and different classes of antidepressants bury less marbles when compared to the control mice
The apparatus consists of transparent polycarbonate cages (30 cm×18 cm×19 cm) containing a 5 cm layer of fine sawdust bedding and 20 glass marbles (diameter: 1.5 cm) spaced evenly along the walls of the cage. Each animal is placed individually in the cage where it remains for a 20 min test session. On termination of the test session the animals are removed from the cage and the number of marbles at least two-thirds buried in the sawdust is recorded.
as §1

[5] = test system: mice; assay: Forced Swim Test (antidepressant properties); assay type: in vivo; details: per os 1 hour before the test
Description: The forced swim test is the most widely used paradigm for the evaluation of potential antidepressant effect of drugs. Animals placed in a container filled with water show periods of increased swimming activity and periods of relative immobility. Immobile posture reflects a state of tiredness, fatigue, reduced stamina or a lowered mood (hopelessness) similar to the core symptoms observed in depressed patients and in individuals under intense stress. […] The test has some predictive value for anti-depressant drugs. The apparatus consists of a glass cylinder (height 35 cm; diameter 24 cm) filled with water (depth: 25 cm, temperature: 25±1° C.).
as §1

[6] = test system: cortical neurons; assay: Neurite outgrowth assay; assay type: cell-based; details: rat cortical neurons, 3 days exposure, tested at 1 nM, 10 nM and 100 nM
Experimental: Female rats of 17 days gestation were killed by cervical dislocation and the foetuses were removed from the uterus. Their brains were placed in ice-cold medium of Leibovitz (L15, Gibco, Fisher bioblock, France). Cortex were dissected and meninges were carefully removed. The cortical neurons were dissociated by trypsinization for 30 min at 37° C. (trypsin-EDTA Gibco) in presence of 0.1 mg/ml DNAse I (Roche, France). The reaction was stopped by addition of Dulbecco's Modified Eagle Medium (DMEM; Gibco) with 10% of fetal bovine serum (FBS; Gibco). The suspension was triturated with a 10-ml pipette and using a 21G needle and syringe, and centrifuged at 350×g for 10 min at room temperature. The pellet of dissociated cells was resuspended in medium consisting of Neurobasal (Gibco) supplemented with 2% B27 supplement (Gibco), 0.5 mM L-Glutamine (Gibco), an antibiotic-antimicotic mixture. Viable cells were counted in a Neubauer cytometer using the trypan blue exclusion test (Sigma). Cells were seeded on the basis of 30000 cells per Petri dish (ø35 mm, Nunc) precoated with poly-L-lysine. […]
A global analysis of the data was performed using a one way analysis of variance (ANOVA), followed by Fisher's Protected Least Significant Difference when applicable. […] All results were expressed as mean±sem. […]

[7] = Kinetic solubility; assay type: physicochemical; details: kinetic from dmso stock
[8] = logD7.4; assay type: physicochemical; details: pH 7.4

solubility kinetic ([7]; pH 2, simulated gastric fluid) [µg/mL] | solubility kinetic ([7]; pH 6.5, aqueous buffer) [µg/mL] | logD [8] | SMILES | Light Dark Box MED (Minimum Effective Dose) [1] | Open Field (Dark) sedation [2] | Elevated Plus Maze MED (Minimum Effective Dose) [3] | Marble Burying MED (Minimum Effective Dose) [4] | Forced Swim Test MED (Minimum Effective Dose) [5] | Neurite outgrowth: significant effect at concentrations [6]
– | – | – | Cc1nc2ccc(NC3Cc4ccccc4C3)cc2c(-c2ccccc2)c1C(=O)N1CCOCC1 [Example 2] | MED 10 mg/kg | – | – | – | – | –
25 to 50 (≈ 63.4 to 127 µM) | 50 to 100 (≈ 127 to 254 µM) | 2 | Cc1nc2ccc(NC3Cc4ccccc4C3)cc2c(-c2ccccc2)c1C(=O)O [Example 1, 6-(2,3-dihydro-1H-inden-2-ylamino)-2-methyl-4-phenylquinoline-3-carboxylic acid] | MED 0.1 mg/kg | No Sedation | MED 0.1 mg/kg | MED 0.1 mg/kg | MED 10 mg/kg | ≦100 nM
